Test results from patent publication US11129840B2, “Methods for identifying novel dosing regimens” (Zavante Therapeutics, Inc., priority 2017, dated 2021).
Converted amounts (≈) assume the structure as drawn. Read-outs that look alike come from different tables or passages of the source.

How the values were obtained:
C. freundii complex = experiment: Reference agar dilution MIC, SENTRY US isolates; assay type: cell-based; details: Citrobacter freundii; randomly selected
Description: (§1) FOS was tested against over 1,400 GN and 800 GP clinical isolates collected in US medical centers as part of the SENTRY Antimicrobial Surveillance Program (96% of isolates from 2015) and a selection of 29 GN and 20 GP anaerobes. Isolates were susceptibility (S) tested against FOS and comparators by reference agar dilution (25 μg/mL glucose-6-phosphate supplementation) using existing FDA breakpoints of the oral formulation for comparative assessments.

E. faecium = experiment: Reference agar dilution MIC, SENTRY US isolates; assay type: cell-based; details: FDA oral breakpoints
Description: as §1

Enterobacteriaceae [1] = experiment: Reference agar dilution MIC, SENTRY US isolates; assay type: cell-based; details: selected Enterobacteriaceae
Description: as §1

[2] = tested on: Clostridium spp., Finegoldia magna, and Peptostreptococcus spp.; experiment: Reference agar dilution MIC, anaerobes; assay type: cell-based; details: small collection
Description: as §1

[3] = tested on: Prevotella and Porphyromonas spp.; experiment: Reference agar dilution MIC, anaerobes; assay type: cell-based
Description: as §1

Propionibacterium spp. = experiment: Reference agar dilution MIC, anaerobes; assay type: cell-based
Description: as §1

Veillonella spp. = experiment: Reference agar dilution MIC, anaerobes; assay type: cell-based
Description: as §1

CR-KPN = experiment: Reference agar dilution MIC, resistant SENTRY isolates; assay type: cell-based, Klebsiella pneumoniae
Description: (§2) Utilizing existing interpretative criteria for the marketed oral agent (dosed at 3 g) for analysis purposes, FOS susceptibility (S) was determined for recent resistant GN and GP clinical isolates including vancomycin-resistant Enterococcus faecium (VREM) and E. faecalis (VREF); methicillin-resistant Staphylococcus aureus (MRSA) and MR coagulase negative staphylococci (MR-CoNS), Escherichia coli (EC) and Klebsiella pneumoniae (KPN) containing extended spectrum beta-lactamases (ESBL) or were carbapenem resistant (CR); and), Pseudomonas aeruginosa (PSA) non-susceptible to ceftazidime (CAZ-NS) or to meropenem (MER-NS).

KPN with ESBL phenotype = experiment: as above; assay type: cell-based, Klebsiella pneumoniae
Description: as §2

[4] = Phase I single dose pharmacokinetics in healthy adult subjects; assay type: in vivo, human; details: for half-life / CL renal / Vd / AUC(0-inf) / Cmax / Tmax: plasma
Description: Materials/methods: Phase I, open-label study evaluating IV (ZTI-01) and PO (Monurol®) FOS in healthy adult subjects. […] Blood and urine samples were collected serially before and through 48 hours post-dose and analyzed via LC/MS-MS. Noncompartmental analyses were performed via WinNonlin. Safety was monitored throughout the course of the study.

[5] = tested on: 5 EC (4 ESBL), 3 KPN (2 CR), and 2 PSA; experiment: MIC by agar dilution, isolates of the thigh infection study; assay type: cell-based; details: 10 isolates
Description: 5 EC (4 ESBL), 3 KPN (2 CR), and 2 PSA were used. MICs were determined by agar dilution. […] PK/PD index determination was performed using a dose fractionation (DF) study design. […] The dose-response data was analyzed using the Emax Hill equation.

[6] = tested on: Carbapenem-resistant Enterobacteriaceae (CRE) clinical isolates; experiment: Agar dilution susceptibility, CRE clinical isolates; assay type: cell-based
Enterobacteriaceae [7] = experiment: Neutropenic murine-thigh infection model, AUC:MIC ratio targets; assay type: in vivo
[8] = tested on: Meropenem-NS PSA (MDR PSA isolates); experiment: FOF MIC by ETEST; assay type: cell-based; details: Pseudomonas aeruginosa
Description: Meropenem-NS PSA obtained from US hospitals were studied. MICs of all antibiotics except FOF were previously determined by broth microdilution; FOF MIC was determined by ETEST® antibiotic gradient diffusion strip prior to conducting synergy assessments between FOF and aztreonam (ATM), cefepime (FEP), ceftazidime (CAZ), meropenem (MEM), piperacillin/tazobactam (TZP), and tobramycin (TOB). […] Of note, Liofilchem® MIC Test Strip was used for TZP due to commercial availability. Only organisms that were NS to the 2nd drug were assessed for synergy.

[9] = tested on: Carbapenemase-producing Enterobacteriaceae (CPE); experiment: FOF MIC by ETEST; assay type: cell-based; details: 37 CPE incl. 11 harboring fos(A)
Description: Isolates (n=37) harboring KPC, NDM, OXA, or VIM carbapenemases, with a majority also producing extended-spectrum β-lactamases, were acquired from the FDA-CDC Antimicrobial Resistant Bank. MICs for agents tested in combination with FOF were determined by broth microdilution; FOF MIC was determined by ETEST® antibiotic gradient diffusion strip prior to conducting synergy assessments between FOF and aztreonam (ATM), ceftazidime (CAZ), ceftazidime/avibactam (CZA), cefepime, ceftolozane/tazobactam (C/T), meropenem, piperacillin/tazobactam, and tobramycin (TOB). Synergistic potential for each combination was determined by crossing a FOF ETEST® strip with each of the aforementioned antibiotic strips at a 90° angle at their respective MICs with subsequent calculation of the fractional inhibitory concentration (FIC). […] Only organisms that were non-susceptible to the second drug were assessed for synergy.

Enterobacteriaceae [10] = experiment: MIC distribution for 1,091 Enterobacteriaceae isolates from USA; assay type: cell-based
[11] = Single dose plasma PK in mice after SC administration; details: mouse, in vivo
[12] = Klebsiella pneumoniae, 17 CR-KPN
[13] = human, in vivo, 3 g PO (Monurol), mean ± SD
[14] = human, 1 g IV (ZTI-01), mean ± SD
[15] = human, 3 g PO (Monurol), mean ± SD
[16] = human, 8 g IV (ZTI-01), mean ± SD

In the case of `C[C@@H]1O[C@@H]1P(=O)(O)O` [FOS, fosfomycin], the MIC50 (C. freundii complex) is reported as 0.5 µg/mL (≈ 3.62 µM), the MIC90 (C. freundii complex) is reported as 1 µg/mL (≈ 7.24 µM) and the “% S” value (E. faecium) is reported as 79.8%. For the same compound, the “% intermediate” value (E. faecium) was 19.2%, the MIC50 (Enterobacteriaceae [1]) was 4 µg/mL (≈ 29 µM) and the MIC range [2] was 0.5 to 32 µg/mL. The MIC [3] was > 256 µg/mL, the MIC (Propionibacterium spp.) was > 256 µg/mL and the MIC range (Veillonella spp.) was ≤0.03 to 0.06 µg/mL. For the same compound, the MIC50 (CR-KPN; [12]) was 8 µg/mL (≈ 57.9 µM), the MIC90 (CR-KPN; [12]) was 64 µg/mL (≈ 464 µM) and the “No. of isolates with FOS MIC≤64 μg/mL” value (CR-KPN; of 17 CR-KPN) was 16. The MIC (CR-KPN; one isolate) was > 256 µg/mL, the MIC (KPN with ESBL phenotype; Klebsiella pneumoniae) was > 256 µg/mL and the MIC50 (KPN with ESBL phenotype; Klebsiella pneumoniae, 50 KPN) was 4 µg/mL (≈ 29 µM). The MIC90 (KPN with ESBL phenotype; Klebsiella pneumoniae, 50 KPN) was 16 µg/mL (≈ 116 µM), the “No. of isolates with FOS MIC≤64 μg/mL” value (KPN with ESBL phenotype; of 50 KPN) was 49 and the “fraction of the dose excreted in urine after 48 hours” value (shortened to “fraction of the dose excreted”) ([4]; 1 g IV) was 74%. The CLT ([4]; 1 g IV (ZTI-01), mean ± SD) was 8.7 ± 1.7 L/h, the “fraction of the dose excreted” value ([4]; 3 g PO) was 37% and the CLT/F ([4]; 3 g PO (Monurol), mean ± SD) was 17.0 ± 4.7 L/h. The “fraction of the dose excreted” value ([4]; 8 g IV) was 80%, the CLT ([4]; 8 g IV (ZTI-01), mean ± SD) was 7.8 ± 1.4 L/h and the “dose dependence of plasma PK” value ([4]; between the 1 g and 8 g IV doses) was “approximately linear and proportional”. It also gave a half-life ([4]; human, in vivo, 1 g IV (ZTI-01), mean ± SD) of 2.4 ± 0.4 h, a Vd/F [4, 13] of 204 ± 70.7 L and a half-life [4, 13] of 9.04 ± 4.5 h. For the same compound, the half-life ([4]; human, in vivo, 8 g IV (ZTI-01), mean ± SD) was 2.8 ± 0.6 h, the CL renal [4, 14] was 110 mL/min and the Vd [4, 14] was 29.7 ± 5.7 L. The CL renal [4, 15] was 108 mL/min, the CL renal [4, 16] was 105 mL/min and the Vd [4, 16] was 31.5 ± 10.4 L. The AUC(0-inf) [4, 14] was 120 ± 28.5 µg·h/mL, the Cmax [4, 14] was 44300 ± 7600 ng/mL and the Tmax [4, 14] was 1.1 ± 0.05 h. For the same compound, the AUC(0-inf) [4, 15] was 191 ± 57.6 µg·h/mL, the Cmax [4, 15] was 26800 ± 6400 ng/mL and the Tmax [4, 15] was 2.25 ± 0.4 h. It also gave an AUC(0-inf) [4, 16] of 1060 ± 192 µg·h/mL, a Cmax [4, 16] of 370000 ± 61900 ng/mL and a Tmax [4, 16] of 1.08 ± 0.01 h. The MIC range [5] was 1 to 16 µg/mL, the “% of isolates susceptible to FOS” value [6] was 94% and the MIC90 [6] was 512 µg/mL (≈ 3710 µM). It also gave an MIC50 ([6]; 50 isolates) of 2 µg/mL (≈ 14.5 µM), an MIC range ([6]; C-A R isolates) of 1 to 64 µg/mL and an MIC ([6]; C-A R isolates, read-out: Median MIC) of 8 µg/mL (≈ 57.9 µM). The MIC ([6]; FOS R isolate with fosA2 and SNP in glpT, read-out: MIC) was 256 µg/mL (≈ 1850 µM), the MIC ([6]; FOS-R isolate harboring fosA3, read-out: MIC) was > 1020 µg/mL and the MIC ([6]; third FOS-R isolate (OXA-181+, CTXM-15+Kp), read-out: MIC) was 128 µg/mL (≈ 927 µM). The “median total-drug plasma AUC:MIC ratio target” value (Enterobacteriaceae [7]; 1-log10 CFU reduction from baseline at 24 h) was 41.6, the “median total-drug plasma AUC:MIC ratio target” value (Enterobacteriaceae [7]; net bacterial stasis at 24 h) was 19.1 and the MIC90 [8] was > 1020 µg/mL. For the same compound, the MIC50 ([8]; 87 isolates, ETEST) was 64 µg/mL, the MIC50 [9] was > 1020 µg/mL and the MIC90 (Enterobacteriaceae [10]) was 16 mgL. It also gave a half-life [11] of 0.51 to 1.1 h.
